# Tests used:
# [1] = tested on: Septoria nodorum (Glume blotch); experiment: Septoria nodorum wheat leaf segment test, preventive fungicidal activity; format: cell-based; settings: tested dose range 200 to 22 ppm, wheat leaf segments, assessed 4 dpi
# Method: Septoria nodorum (Glume blotch): Wheat leaf segments are placed on agar in a multiwell plate (24-well format) and sprayed with test solutions. After drying, the leaf disks are inoculated with a spore suspension of the fungus. After appropriate incubation the activity of a compound is assessed 4 dpi (days after inoculation) as preventive fungicidal activity. Within the tested dose range of 200 to 22 ppm the Compound No. 82 inhibited at least 80% of fungal growth.
# [2] = tested on: Plasmopara viticola on vines; experiment: Action against Plasmopara viticola on vines, residual-protective action (D-1a); format: in vivo; settings: vine seedlings sprayed 24 hours before infection, evaluated after 6 days, untreated plants attack 60-100%
# Method: (§1) Action Against Plasmopara Viticola on Vines
# A) Residual-Protective Action
# Fungus infestation is evaluated after incubation for 6 days at 95-100% relative humidity and +20° C.
# [3] = tested on: Plasmopara viticola on vines; experiment: Action against Plasmopara viticola on vines, residual-curative action (D-1b); format: in vivo; settings: vine seedlings sprayed 24 hours after infection, evaluated 6 days after infection, untreated plants attack 60-100%
# Method: as §1
# b) Residual-Curative Action
# Vine seedlings are infected at the 4- to 5-leaf stage with a sporangia suspension of the fungus. […] After the spray coating has dried, the treated plants are placed in the humidity chamber again. Fungus infestation is evaluated 6 days after infection.
Compound,inhibition of fungal growth [1],inhibition at 200 ppm [2] [%],inhibition at 200 ppm [3] [%]
"CCOc1ccc(OCC(C)(NS(=O)(=O)Cc2ccccc2)C(=O)OC)cc1 (stereo not shown) [compound 082, 3-(4-Ethoxy-phenoxy)-2-methyl-2-phenylmethanesulfonylamino-propionic Acid Methyl Ester]",at least 80%,,
"CC(COc1ccc(-n2cncn2)cc1)(NS(=O)(=O)Cc1ccccc1)C(=O)O (stereo not shown) [compound 100, 2-Methyl-2-phenylmethanesulfonylamino-3-(4-[1,2,4]triazol-1-yl-phenoxy)-propionic Acid]",,80 to 100,80 to 100
"CCOc1ccc(OCC(C)(NS(=O)(=O)Cc2ccccc2)C(=O)N(C)OC)cc1 (stereo not shown) [compound 083, 3-(4-Ethoxy-phenoxy)-N-methoxy-2,N-dimethyl-2-phenylmethanesulfonylamino-propionamide]",,80 to 100,80 to 100
"C#CCNC(=O)C(C)(COc1ccc(OCC)cc1)NS(=O)(=O)Cc1ccccc1 (stereo not shown) [compound 087, 3-(4-Ethoxy-phenoxy)-2-methyl-2-phenylmethanesulfonylamino-N-prop-2-ynyl-propionamide]",,80 to 100,80 to 100

# Source: patent US7884103B2 (priority 2003, dated 2011)
